Results reported in article PMC11085448 (Molecules, 2024).
“And” between values parts separate entries of the source, which are not always exact repeats. Equal values may be shown once.

Experiments:
[1] = target: T1, human κ-opioid receptor (OPRK1) (Homo sapiens, UniProt P41145); test: forskolin-induced cAMP accumulation assay, KOR agonist; details: for Emax: CHO-K1, read-out: KOR Agonist %Emax ± SEM, CHO-K1 cells expressing human KOR, normalized to the forskolin control; for EC50: KOR Agonist EC50 ± SEM, inhibition of forskolin-induced cAMP accumulation, CHO-K1 cells expressing human KOR
T1 sequence (P41145 whole entry): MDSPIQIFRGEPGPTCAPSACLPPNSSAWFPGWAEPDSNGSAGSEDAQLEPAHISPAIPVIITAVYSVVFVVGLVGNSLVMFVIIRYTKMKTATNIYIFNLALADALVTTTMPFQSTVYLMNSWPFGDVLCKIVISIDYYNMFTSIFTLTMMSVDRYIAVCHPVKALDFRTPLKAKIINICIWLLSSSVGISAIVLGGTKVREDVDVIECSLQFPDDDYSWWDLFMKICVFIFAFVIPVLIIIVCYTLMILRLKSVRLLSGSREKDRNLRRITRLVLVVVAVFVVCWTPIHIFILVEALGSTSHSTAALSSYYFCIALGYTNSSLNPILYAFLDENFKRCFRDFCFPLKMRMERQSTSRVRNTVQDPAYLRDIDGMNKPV

[2] = target: T2, human δ-opioid receptor (OPRD1) (Homo sapiens, UniProt P41143); test: forskolin-induced cAMP accumulation assay, DOR agonist; details: for Emax: CHO-K1, read-out: DOR Agonist %Emax ± SEM, CHO-K1 cells expressing human DOR; for EC50: DOR Agonist EC50 ± SEM, inhibition of forskolin-induced cAMP accumulation
T2 sequence (P41143 whole entry): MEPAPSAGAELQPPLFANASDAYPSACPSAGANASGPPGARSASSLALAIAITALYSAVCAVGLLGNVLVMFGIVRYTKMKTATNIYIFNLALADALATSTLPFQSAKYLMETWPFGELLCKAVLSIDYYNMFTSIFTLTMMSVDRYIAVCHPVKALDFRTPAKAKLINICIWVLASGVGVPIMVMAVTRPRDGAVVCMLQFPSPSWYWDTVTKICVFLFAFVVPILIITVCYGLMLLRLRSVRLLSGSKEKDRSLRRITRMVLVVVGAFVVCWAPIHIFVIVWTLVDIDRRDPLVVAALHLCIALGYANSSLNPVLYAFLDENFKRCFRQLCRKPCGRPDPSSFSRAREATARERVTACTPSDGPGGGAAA

[3] = target: T3, human μ-opioid receptor (OPRM1) (Homo sapiens, UniProt P35372); test: cell-based; details: for EC50: MOR Agonist EC50 ± SEM; for Emax: read-out: MOR Agonist %Emax ± SEM
T3 construct: host or cells: cAMP Hunter CHO-K1 (Chinese hamster ovary) cells
T3 sequence (P35372 whole entry): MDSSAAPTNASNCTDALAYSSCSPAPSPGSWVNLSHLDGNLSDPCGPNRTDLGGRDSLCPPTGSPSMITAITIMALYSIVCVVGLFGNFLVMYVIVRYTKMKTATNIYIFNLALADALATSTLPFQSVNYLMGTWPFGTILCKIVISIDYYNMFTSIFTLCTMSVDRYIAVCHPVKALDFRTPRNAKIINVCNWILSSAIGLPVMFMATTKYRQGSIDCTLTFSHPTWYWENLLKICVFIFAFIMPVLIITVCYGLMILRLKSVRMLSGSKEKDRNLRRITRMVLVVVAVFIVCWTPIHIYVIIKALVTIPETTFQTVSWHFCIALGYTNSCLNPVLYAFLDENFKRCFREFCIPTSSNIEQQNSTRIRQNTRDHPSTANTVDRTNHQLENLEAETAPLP

[4] = target: T1, human κ-opioid receptor (OPRK1); test: forskolin-induced cAMP accumulation assay, KOR antagonist
[5] = target: T2, human δ-opioid receptor (OPRD1); test: forskolin-induced cAMP accumulation assay, DOR antagonist; type: cell-based; design: host or cells: cAMP Hunter CHO-K1 (Chinese hamster ovary) cells; details: for DOR Antagonist %Imax ± SEM: CHO-K1 human DOR, versus EC50 of SNC80, Imax normalized to naltrexone
[6] = normalized to the forskolin control
[7] = CHO-K1 cells expressing human DOR

Row | Structure (SMILES) | Emax [1] [%] | EC50 [1] [nM] | Emax [2, 6] [%] | EC50 [2, 7] | EC50 [3] | Emax [3] [%] | DOR Agonist %Emax ± SEM ([2]; CHO-K1 cells expressing human DOR, normalized to the forskolin control) [%] | MOR agonist potency relative to morphine (times more potent) [3] | IC50 [4] [nM] | IC50 [5] [nM] | DOR Antagonist %Imax ± SEM [5] [%] | KOR Antagonist %Imax ± SEM ([4]; CHO-K1 human KOR, versus EC90 of U50488H, Imax normalized to nor-BNI) [%]
1 | CNC[C@@H]1[C@@H]2CCC[C@@]1(c1cccc(O)c1)CCN2CCc1ccccc1 [1S,5R,9R-47, 3-((1S,5R,9R)-9-((Methylamino)methyl)-2-phenethyl-2-azabicyclo[3.3.1]nonan-5-yl)phenol] | 93.4 | 95.7 ± 17 | 84.7 | 416 ± 21.1 nM | 3.7 nM and 3.66 nM | 102 |  |  |  |  |  | 
2 | N#CC=C1[C@H]2CCC[C@]1(c1cccc(O)c1)CCN2CCc1ccccc1 [1R,5R-33, 2-((1R,5R)-5-(3-hydroxyphenyl)-2-phenethyl-2-azabicyclo[3.3.1]nonan-9-ylidene)acetonitrile] | > 50 | > 10000 | 69 | 8 nM and 8.1 nM | 1.8 nM | 100 | 69.3 ± 6.0 | about three times |  |  |  | 
3 | N#CC[C@@H]1[C@@H]2CCC[C@@]1(c1cccc(O)c1)CCN2CCc1ccccc1 [1S,5R,9S-34, 2-((1S,5R,9S)-5-(3-Hydroxyphenyl)-2-phenethyl-2-azabicyclo[3.3.1]nonan-9-yl)acetonitrile] |  | > 10000 | 61.5 | 575 ± 127 nM | 27 nM and 27.3 nM | 101 |  |  | > 10000 |  |  | 
4 | ON=C1[C@H]2CCC[C@]1(c1cccc(O)c1)CCN2CCc1ccccc1 [1R,5R-17, (1R,5R)-5-(3-Hydroxyphenyl)-2-phenethyl-2-azabicyclo[3.3.1]nonan-9-one oxime] | 21.2 | 146 ± 19 | 32.2 | 157 ± 72 nM | 22 nM and 22.1 nM | 99 |  |  | > 10000 | 1080 ± 464 | 66.5 ± 6.0 | 
5 | N[C@H]1[C@H]2CCC[C@]1(c1cccc(O)c1)CCN2CCc1ccccc1 [1R,5R,9R-23, 3-((1R,5R,9R)-9-Amino-2-phenethyl-2-azabicyclo[3.3.1]nonan-5-yl)phenol] |  | > 10000 | 46.6 | 186 ± 12.5 nM | 26 nM and 26.1 nM | 81 |  |  | > 10000 |  |  | 
6 | CN[C@H]1[C@@H]2CCC[C@@]1(c1cccc(O)c1)CCN2CCc1ccccc1 [1S,5S,9R-8, 3-((1S,5S,9R)-9-(Methylamino)-2-phenethyl-2-azabicyclo[3.3.1]nonan-5-yl)phenol] |  | > 10000 |  |  | > 10000 nM |  |  |  |  |  |  | 
7 | CN[C@@H]1[C@H]2CCC[C@]1(c1cccc(O)c1)CCN2CCc1ccccc1 [1R,5R,9S-10, 3-((1R,5R,9S)-9-(Methylamino)-2-phenethyl-2-azabicyclo[3.3.1]nonan-5-yl)phenol] |  |  |  |  | 83 nM and 82.8 nM | 28 |  |  |  |  |  | 
8 | CNC[C@@H]1[C@H]2CCC[C@]1(c1cccc(O)c1)CCN2CCc1ccccc1 [1R,5S,9R-52, 3-((1R,5S,9R)-9-((Methylamino)methyl)-2-phenethyl-2-azabicyclo[3.3.1]nonan-5-yl)phenol] | 57 | 210 ± 92 | 62 | 502 ± 125 nM | 43 nM and 43.3 nM | 94 |  |  |  |  |  | 
9 | N#CC[C@@H]1[C@H]2CCC[C@]1(c1cccc(O)c1)CCN2CCc1ccccc1 [1R,5S,9S-41, 2-((1R,5S,9S)-5-(3-Hydroxyphenyl)-2-phenethyl-2-azabicyclo[3.3.1]nonan-9-yl)acetonitrile] |  |  |  |  | > 10000 nM |  |  |  |  |  |  | 
10 | N[C@@H]1[C@H]2CCC[C@]1(c1cccc(O)c1)CCN2CCc1ccccc1 [1R,5R,9S-6, 3-((1R,5R,9S)-9-Amino-2-phenethyl-2-azabicyclo[3.3.1]nonan-5-yl)phenol] |  | > 10000 | 39.4 | 690 ± 188 nM | 24 nM | 91 |  |  | > 10000 | > 10000 |  | 
11 | ON=C1[C@@H]2CCC[C@@]1(c1cccc(O)c1)CCN2CCc1ccccc1 [1S,5S-15, (1S,5S)-5-(3-Hydroxyphenyl)-2-phenethyl-2-azabicyclo[3.3.1]nonan-9-one oxime] |  | > 10000 |  |  | 229 nM | 91 |  |  |  |  |  | 
12 | N#CC[C@H]1[C@H]2CCC[C@]1(c1cccc(O)c1)CCN2CCc1ccccc1 [1R,5S,9R-35, 2-((1R,5S,9R)-5-(3-hydroxyphenyl)-2-phenethyl-2-azabicyclo[3.3.1]nonan-9-yl)acetonitrile] |  | > 10000 | 35 | 4 nM and 4.3 nM | 0.85 nM | 99 |  |  | > 10000 | 94.5 ± 29.5 | 35.1 ± 2.6 | 
13 | N[C@@H]1[C@@H]2CCC[C@@]1(c1cccc(O)c1)CCN2CCc1ccccc1 [1S,5S,9S-22, 3-((1S,5S,9S)-9-Amino-2-phenethyl-2-azabicyclo[3.3.1]nonan-5-yl)phenol] |  |  |  |  | 94 nM and 94.1 nM | 53 |  |  |  |  |  | 
14 | CNC[C@H]1[C@H]2CCC[C@]1(c1cccc(O)c1)CCN2CCc1ccccc1 [1R,5S,9S-53, 3-((1R,5S,9S)-9-((Methylamino)methyl)-2-phenethyl-2-azabicyclo[3.3.1]nonan-5-yl)phenol] |  | > 10000 | 17.4 | 43.9 ± 22.2 nM | 16 nM and 15.9 nM | 97 |  |  | > 10000 | 1630 ± 882 | 109.3 ± 5.2 | 
15 | N#CC=C1[C@@H]2CCC[C@@]1(c1cccc(O)c1)CCN2CCc1ccccc1 [1S,5S-28, 2-((1S,5S)-5-(3-Hydroxyphenyl)-2-phenethyl-2-azabicyclo[3.3.1]nonan-9-ylidene)acetonitrile] |  | > 10000 | 51.4 | 1520 ± 385 nM | 27 nM and 27.2 nM | 101 |  |  | > 10000 |  |  | 
16 | N#CC[C@H]1[C@@H]2CCC[C@@]1(c1cccc(O)c1)CCN2CCc1ccccc1 [1S,5R,9R-38, 2-((1S,5R,9R)-5-(3-Hydroxyphenyl)-2-phenethyl-2-azabicyclo[3.3.1]nonan-9-yl)acetonitrile] |  | > 10000 | 46.8 | 55 ± 3.9 nM | 2.5 nM | 89.6 |  | about twice | 44 ± 4 |  |  | 97 ± 0.1
17 | N[C@H]1[C@@H]2CCC[C@@]1(c1cccc(O)c1)CCN2CCc1ccccc1 [1S,5S,9R-3, 3-((1S,5S,9R)-9-Amino-2-phenethyl-2-azabicyclo[3.3.1]nonan-5-yl)phenol] |  | > 10000 |  |  | > 10000 nM |  |  |  |  |  |  | 
18 | Oc1ccc2c3c1O[C@H]1c4[nH]c5ccccc5c4C[C@@]4(O)[C@@H](C2)N(CC2CC2)CC[C@]314 [Naltrindole, reference compound] |  |  |  |  |  |  |  |  |  |  | 106.8 ± 4.8 | 
